Data from patent US20110230481A2, “DERIVATIVES OF TETRABROMOBENZIMIDAZOLE, A PROCESS FOR THE PREPARATION THEREOF, A PHARMACEUTICAL COMPOSITION COMPRISING THE SAME, A METHOD OF USING THE SAME, A METHOD FOR MODULATING OR REGULATING SERINE/THREONINE KINASES, AND SERINE/THREONINE KINASES MODULATING AGENT” (SELVITA S.A., priority 2009, published 2011).

Tests used:
panel of 440 kinases = assay: KINOMEscan Max, whole panel; assay type: binding, human; details: 1 μM
Protocol: (§1) Kinase panel profiling was performed at Ambit Kinomescan (http://www.ambitbio.com/technology/) using the “KINOMEscan™ Max” assay platform, a high-throughput method for screening small molecule compounds against large numbers of human kinases. KINOMEscan™ is based on a competition binding assay that quantitatively measures the ability of a compound to compete with an immobilized, active-site directed ligand. The assay is performed by combining three components: DNA-tagged kinase; immobilized ligand; and a test compound. The ability of the test compound to compete with the immobilized ligand is measured via quantitative PCR of the DNA tag. For a description of Ambit's assay protocol, see Fabian et al. A small molecule-kinase interaction map for clinical kinase inhibitors. Nat. Biotechnol. 23, 329-336 (2005).
Selectivity of kinase inhibition is one of the key parameters in therapeutic use of this class of compounds. Off-target inhibition could be one of the major safety and toxicity issues in drug development and use of the compounds for treatment of various disease conditions. For this reason, development of selective kinase inhibitors is desired, to limit possible adverse effects. Therefore compounds disclosed in the application were tested on a panel of 440 kinases to determine specificity in PIM kinase inhibition. Table 5 provides selectivity data for representative compound N-(3-aminopropyl)-4,5,6,7-tetrabromo-1H-benzo[d]imidazol-2-amine (compound 11). As indicated in the Table 5 when tested at 1 μM concentration N-(3-aminopropyl)-4,5,6,7-tetrabromo-1H-benzo[d]imidazol-2-amine inhibited substrate biding of only 12 kinases (2% of the whole panel)>90%, whereas for over 93% of the tested kinases in the panel, substrate binding was basically not affected by compound 11. Pim kinases, but also HIPK, DYRK and CLK kinases and FTL3 mutants were identified as the primary targets for inhibition by compound 11 and selectivity for Pim kinases over other kinases was further confirmed in radiometric kinase assays.

DRAK2 = target: T1, DRAK2 (Homo sapiens, UniProt O94768); assay: KINOMEscan Max; assay type: binding
T1 construct: purchased Ambit (KINOMEscan Max panel service)
Protocol: as §1

YANK3 = YANK3 (Homo sapiens, UniProt Q86UX6); assay: KINOMEscan Max; assay type: binding
Sequence of YANK3 (Q86UX6 whole entry): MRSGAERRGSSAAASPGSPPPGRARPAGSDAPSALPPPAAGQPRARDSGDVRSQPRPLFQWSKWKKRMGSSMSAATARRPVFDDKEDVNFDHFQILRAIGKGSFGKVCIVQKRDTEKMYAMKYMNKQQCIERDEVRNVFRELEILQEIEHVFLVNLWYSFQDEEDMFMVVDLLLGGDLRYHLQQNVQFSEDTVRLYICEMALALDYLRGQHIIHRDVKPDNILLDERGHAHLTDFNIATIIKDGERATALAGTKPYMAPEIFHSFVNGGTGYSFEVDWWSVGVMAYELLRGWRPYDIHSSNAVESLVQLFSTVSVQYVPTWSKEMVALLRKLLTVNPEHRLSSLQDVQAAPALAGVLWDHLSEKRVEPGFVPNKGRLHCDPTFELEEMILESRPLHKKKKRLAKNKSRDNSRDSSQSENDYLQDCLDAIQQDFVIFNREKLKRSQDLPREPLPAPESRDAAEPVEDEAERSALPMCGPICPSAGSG
Protocol: as §1

TNIK = target: T2, TNIK (Homo sapiens, UniProt Q9UKE5); assay: KINOMEscan Max; assay type: binding
T2 construct: purchased Ambit Kinomescan (contract screening service)
Protocol: as §1

MYO3B = MYO3B (Homo sapiens, UniProt Q8WXR4); assay: KINOMEscan Max; assay type: binding
Protocol: as §1

BLK = BLK (Homo sapiens, UniProt P51451); assay: KINOMEscan Max; assay type: binding
Sequence of BLK (P51451 whole entry): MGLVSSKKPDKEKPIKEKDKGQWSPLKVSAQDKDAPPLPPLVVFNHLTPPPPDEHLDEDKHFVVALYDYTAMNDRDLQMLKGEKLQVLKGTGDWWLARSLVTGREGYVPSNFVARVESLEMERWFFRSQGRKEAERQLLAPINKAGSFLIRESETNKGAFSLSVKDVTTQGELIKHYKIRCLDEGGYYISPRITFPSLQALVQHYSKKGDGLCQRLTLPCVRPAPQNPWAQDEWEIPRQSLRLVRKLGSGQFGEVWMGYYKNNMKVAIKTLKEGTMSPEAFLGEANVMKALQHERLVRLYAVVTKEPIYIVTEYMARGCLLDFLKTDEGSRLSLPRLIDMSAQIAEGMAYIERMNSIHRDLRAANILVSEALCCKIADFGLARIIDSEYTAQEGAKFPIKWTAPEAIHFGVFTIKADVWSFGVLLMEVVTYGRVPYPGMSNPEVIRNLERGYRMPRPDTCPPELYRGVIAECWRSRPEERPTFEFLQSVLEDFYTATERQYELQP
Protocol: as §1

ERN1 = target: T3, ERN1 (Homo sapiens, UniProt O75460); assay: KINOMEscan Max; assay type: binding
T3 construct: DNA tag (qPCR read-out)
Protocol: as §1

LYN = target: T4, LYN (Homo sapiens, UniProt P07948); assay: KINOMEscan Max; assay type: binding
T4 construct: purchased Ambit Kinomescan (contract panel)
Protocol: as §1

MET(M1250T) = target: T5, MET(M1250T) (Homo sapiens, UniProt P08581, M1250T); assay: KINOMEscan Max; assay type: binding; details: 1 μM
T5 construct: DNA tag (qPCR read-out)
Protocol: as §1

CHEK1 = target: T6, CHEK1 (Homo sapiens, UniProt O14757); assay: KINOMEscan Max; assay type: binding; details: 1 μM
T6 construct: DNA tag (qPCR read-out)
T6 sequence (O14757 whole entry): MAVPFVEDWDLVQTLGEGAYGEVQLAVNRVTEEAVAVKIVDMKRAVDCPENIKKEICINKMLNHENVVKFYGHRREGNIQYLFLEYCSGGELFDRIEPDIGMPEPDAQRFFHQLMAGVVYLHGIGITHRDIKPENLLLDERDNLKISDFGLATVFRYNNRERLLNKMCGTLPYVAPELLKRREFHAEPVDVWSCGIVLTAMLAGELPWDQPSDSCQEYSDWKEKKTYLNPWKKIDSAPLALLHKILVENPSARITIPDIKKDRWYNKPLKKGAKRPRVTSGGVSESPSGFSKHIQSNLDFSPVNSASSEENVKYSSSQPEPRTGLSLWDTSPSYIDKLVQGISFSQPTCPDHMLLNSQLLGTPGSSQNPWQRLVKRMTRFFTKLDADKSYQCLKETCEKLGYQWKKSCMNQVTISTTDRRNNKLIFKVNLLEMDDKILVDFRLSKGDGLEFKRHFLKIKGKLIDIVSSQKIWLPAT
Protocol: as §1

CSNK1G1 = target: T7, CSNK1G1 (Homo sapiens, UniProt Q9HCP0); assay: KINOMEscan Max; assay type: binding; details: 1 μM
T7 construct: purchased Ambit (KINOMEscan Max panel service)
T7 sequence (Q9HCP0 whole entry): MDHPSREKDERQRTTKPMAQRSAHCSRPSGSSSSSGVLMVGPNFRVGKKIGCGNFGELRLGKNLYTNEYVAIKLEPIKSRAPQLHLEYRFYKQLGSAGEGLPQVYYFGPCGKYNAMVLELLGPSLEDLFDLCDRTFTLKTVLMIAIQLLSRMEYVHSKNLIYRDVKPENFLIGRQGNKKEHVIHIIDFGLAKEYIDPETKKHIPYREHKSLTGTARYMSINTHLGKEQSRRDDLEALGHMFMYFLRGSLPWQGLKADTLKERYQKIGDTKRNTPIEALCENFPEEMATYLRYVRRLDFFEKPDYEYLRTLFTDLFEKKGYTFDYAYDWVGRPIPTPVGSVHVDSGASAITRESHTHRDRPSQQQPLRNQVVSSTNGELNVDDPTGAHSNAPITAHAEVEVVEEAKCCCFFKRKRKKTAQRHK
Protocol: as §1

ERK5 = target: T8, ERK5 (Homo sapiens, UniProt Q13164); assay: KINOMEscan Max; assay type: binding
T8 construct: purchased Ambit Kinomescan (contract panel, KINOMEscan Max)
Protocol: as §1

FRK = target: T9, FRK (Homo sapiens, UniProt P42685); assay: KINOMEscan Max; assay type: binding
T9 construct: purchased Ambit Kinomescan (contract panel, KINOMEscan Max)
T9 sequence (P42685 whole entry): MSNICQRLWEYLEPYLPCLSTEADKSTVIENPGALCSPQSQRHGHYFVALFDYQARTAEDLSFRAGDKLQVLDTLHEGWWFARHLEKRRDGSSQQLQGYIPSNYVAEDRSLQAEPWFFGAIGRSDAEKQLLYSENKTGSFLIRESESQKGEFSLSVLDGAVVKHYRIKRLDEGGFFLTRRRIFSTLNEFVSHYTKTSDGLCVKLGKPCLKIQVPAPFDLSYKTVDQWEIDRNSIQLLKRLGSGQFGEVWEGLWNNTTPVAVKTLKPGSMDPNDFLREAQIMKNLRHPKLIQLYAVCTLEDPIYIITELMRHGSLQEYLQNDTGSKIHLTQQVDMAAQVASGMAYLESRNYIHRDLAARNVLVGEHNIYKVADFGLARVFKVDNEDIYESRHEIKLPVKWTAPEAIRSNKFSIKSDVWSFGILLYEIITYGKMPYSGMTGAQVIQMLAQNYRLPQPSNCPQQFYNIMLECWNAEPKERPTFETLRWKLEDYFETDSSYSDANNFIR
Protocol: as §1

MARK4 = target: T10, MARK4 (Homo sapiens, UniProt Q96L34); assay: KINOMEscan Max; assay type: binding; details: 1 μM
T10 construct: purchased Ambit (KINOMEscan Max service)
Protocol: as §1

PIP5K2C = target: T11, PIP5K2C (Homo sapiens, UniProt Q8TBX8); assay: KINOMEscan Max; assay type: binding
T11 construct: DNA tag (qPCR read-out)
Protocol: as §1

NEK2 = NEK2 (Homo sapiens, UniProt P51955); assay: KINOMEscan Max; assay type: binding
Sequence of NEK2 (P51955 whole entry): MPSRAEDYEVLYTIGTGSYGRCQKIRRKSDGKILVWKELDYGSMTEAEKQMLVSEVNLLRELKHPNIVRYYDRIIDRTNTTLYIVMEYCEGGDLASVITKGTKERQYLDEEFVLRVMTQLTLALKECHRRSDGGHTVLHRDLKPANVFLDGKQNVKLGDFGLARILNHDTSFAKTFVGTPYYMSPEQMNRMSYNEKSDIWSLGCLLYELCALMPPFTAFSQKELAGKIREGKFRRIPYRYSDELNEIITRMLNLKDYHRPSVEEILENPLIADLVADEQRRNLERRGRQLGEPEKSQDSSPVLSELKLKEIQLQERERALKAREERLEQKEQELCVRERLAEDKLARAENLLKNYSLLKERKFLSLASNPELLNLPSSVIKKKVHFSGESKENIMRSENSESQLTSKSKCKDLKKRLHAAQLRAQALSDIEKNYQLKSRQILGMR
Protocol: as §1

FLT3(N841I) = target: T12, FLT3(N841I) (Homo sapiens, UniProt P36888, N841I); assay: KINOMEscan Max; assay type: binding
T12 construct: purchased Ambit (KINOMEscan Max service)
Protocol: as §1

ICK = target: T13, ICK (Homo sapiens, UniProt Q9UPZ9); assay: KINOMEscan Max; assay type: binding
T13 construct: purchased Ambit Kinomescan (contract panel, KINOMEscan Max)
T13 sequence (Q9UPZ9 whole entry): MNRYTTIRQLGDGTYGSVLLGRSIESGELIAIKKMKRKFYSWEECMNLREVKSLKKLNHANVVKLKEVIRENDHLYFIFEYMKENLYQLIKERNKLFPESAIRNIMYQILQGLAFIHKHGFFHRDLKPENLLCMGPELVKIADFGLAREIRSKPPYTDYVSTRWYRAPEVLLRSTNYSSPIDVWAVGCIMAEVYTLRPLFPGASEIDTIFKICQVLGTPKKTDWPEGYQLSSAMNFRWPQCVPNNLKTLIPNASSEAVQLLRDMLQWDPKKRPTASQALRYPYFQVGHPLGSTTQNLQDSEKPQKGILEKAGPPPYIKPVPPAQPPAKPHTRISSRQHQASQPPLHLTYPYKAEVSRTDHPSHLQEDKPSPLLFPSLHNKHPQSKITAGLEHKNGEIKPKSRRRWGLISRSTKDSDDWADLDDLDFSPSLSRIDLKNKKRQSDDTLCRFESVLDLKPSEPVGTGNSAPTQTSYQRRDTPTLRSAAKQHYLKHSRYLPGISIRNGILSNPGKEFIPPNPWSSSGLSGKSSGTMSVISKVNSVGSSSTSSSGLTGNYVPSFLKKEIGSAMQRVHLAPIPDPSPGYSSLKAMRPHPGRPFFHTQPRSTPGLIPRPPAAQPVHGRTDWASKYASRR
Protocol: as §1

RET(V804L) = target: T14, RET(V804L) (Homo sapiens, UniProt P07949, V804L); assay: KINOMEscan Max; assay type: binding
T14 construct: DNA tag (qPCR read-out)
Protocol: as §1

SNARK = target: T15, SNARK (Homo sapiens, UniProt Q9H093); assay: KINOMEscan Max; assay type: binding; details: 1 μM
T15 construct: DNA tag (qPCR read-out)
Protocol: as §1

VEGFR2 = target: T16, VEGFR2 (Homo sapiens, UniProt P35968); assay: KINOMEscan Max; assay type: binding
T16 construct: purchased Ambit Kinomescan (contract screening)
Protocol: as §1

ITK = target: T17, ITK (Homo sapiens, UniProt Q08881); assay: KINOMEscan Max; assay type: binding; details: 1 μM
T17 construct: purchased Ambit Kinomescan (contract panel)
T17 sequence (Q08881 whole entry): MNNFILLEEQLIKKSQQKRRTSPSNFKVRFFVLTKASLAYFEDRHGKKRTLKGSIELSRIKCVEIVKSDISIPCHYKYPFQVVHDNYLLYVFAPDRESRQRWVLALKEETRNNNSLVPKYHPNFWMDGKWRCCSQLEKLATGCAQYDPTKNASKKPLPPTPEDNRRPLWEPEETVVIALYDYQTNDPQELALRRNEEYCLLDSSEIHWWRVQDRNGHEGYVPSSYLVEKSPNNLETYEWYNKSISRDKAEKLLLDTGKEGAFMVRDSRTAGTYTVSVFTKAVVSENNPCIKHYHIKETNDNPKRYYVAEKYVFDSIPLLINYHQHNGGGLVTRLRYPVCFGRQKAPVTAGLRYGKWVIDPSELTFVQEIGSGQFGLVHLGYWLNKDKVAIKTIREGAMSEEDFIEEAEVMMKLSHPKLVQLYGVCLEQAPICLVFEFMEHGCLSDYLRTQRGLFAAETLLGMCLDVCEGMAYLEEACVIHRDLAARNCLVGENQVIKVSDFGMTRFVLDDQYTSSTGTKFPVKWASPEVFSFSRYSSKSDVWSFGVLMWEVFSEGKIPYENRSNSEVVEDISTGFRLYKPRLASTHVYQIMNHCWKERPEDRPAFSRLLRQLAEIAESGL
Protocol: as §1

DYRK2 = target: T18, DYRK2 (Homo sapiens, UniProt Q92630); assay: KINOMEscan Max; assay type: binding
T18 construct: DNA tag (qPCR read-out); purchased Ambit Kinomescan
Protocol: as §1

PIM3 = PIM3 (Homo sapiens, UniProt Q86V86); assay: KINOMEscan Max; assay type: binding; design: DNA tag (qPCR read-out); purchased Ambit Kinomescan
Protocol: as §1

PIM2 = PIM2 (Homo sapiens, UniProt Q9P1W9); assay: KINOMEscan Max; assay type: binding; design: DNA tag (qPCR read-out); purchased Ambit Kinomescan
Sequence of PIM2 (Q9P1W9 whole entry): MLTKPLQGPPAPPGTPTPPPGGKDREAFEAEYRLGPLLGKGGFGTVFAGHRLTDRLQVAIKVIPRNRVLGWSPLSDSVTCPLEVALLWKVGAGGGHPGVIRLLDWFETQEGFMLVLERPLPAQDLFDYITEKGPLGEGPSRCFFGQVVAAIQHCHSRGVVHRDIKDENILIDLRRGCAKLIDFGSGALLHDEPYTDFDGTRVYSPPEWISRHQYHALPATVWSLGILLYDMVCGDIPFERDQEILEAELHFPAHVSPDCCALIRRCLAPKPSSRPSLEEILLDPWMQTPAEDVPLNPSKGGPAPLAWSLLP
Protocol: as §1

CLK1 = CLK1 (Homo sapiens, UniProt P49759); assay: KINOMEscan Max; assay type: binding; design: DNA tag (qPCR read-out); purchased Ambit Kinomescan
Protocol: as §1

PIM1 = PIM1 (Homo sapiens, UniProt P11309); assay: KINOMEscan Max; assay type: binding; design: DNA tag (qPCR read-out); purchased Ambit Kinomescan
Protocol: as §1

With `NCCCNc1nc2c(Br)c(Br)c(Br)c(Br)c2[nH]1` [Compound 11, N-(3-aminopropyl)-4,5,6,7-tetrabromo-1H-benzo[d]imidazol-2-amine] the “number of kinases with substrate binding inhibited >90%” value (panel of 440 kinases) was 12, the “share of tested kinases with substrate binding basically not affected” value (panel of 440 kinases) was “over 93%” and the “share of the whole panel with substrate binding inhibited >90%” value (panel of 440 kinases) was 2%. The remaining binding at 1 µM (DRAK2) was 100%, the remaining binding at 1 µM (YANK3) was 93% and the remaining binding at 1 µM (TNIK) was 100%. For the same molecule, the remaining binding at 1 µM (MYO3B) was 100%, the remaining binding at 1 µM (BLK) was 96% and the remaining binding at 1 µM (ERN1) was 91%. For the same molecule, the remaining binding at 1 µM (LYN) was 100%, the “% binding” value (MET(M1250T)) was 56% and the “% binding” value (CHEK1) was 88%. The “% binding” value (CSNK1G1) was 100%, the remaining binding at 1 µM (ERK5) was 100% and the remaining binding at 1 µM (FRK) was 100%. For the same molecule, the “% binding” value (MARK4) was 84%, the remaining binding at 1 µM (PIP5K2C) was 56% and the remaining binding at 1 µM (NEK2) was 99%. It also gave a remaining binding at 1 µM (FLT3(N841I)) of 81%, a remaining binding at 1 µM (ICK) of 100% and a remaining binding at 1 µM (RET(V804L)) of 100%. For the same molecule, the “% binding” value (SNARK) was 54%, the remaining binding at 1 µM (VEGFR2) was 96% and the “% binding” value (ITK) was 100%. The remaining binding at 1 µM (DYRK2) was 4.5%, the remaining binding at 1 µM (PIM3) was 5.2% and the remaining binding at 1 µM (PIM2) was 0.85%. For the same molecule, the remaining binding at 1 µM (CLK1) was 5.1% and the remaining binding at 1 µM (PIM1) was 4%.
